According to patent publication US20210299193A1, “SYNBIOTIC COMPOSITION FOR IMPROVING IMMUNE RESPONSE AND ANTIOXIDANT CAPACITY DURING AGING AND A PROCESS FOR THE PREPARATION THEREOF” (COUNCIL OF SCIENTIFIC & INDUSTRIAL RESEARCH, priority 2018, published 2021):

Tests used:
pathogenic bacteria = assay: Effect of EGCG on growth of pathogenic bacteria (OD 600 nm); type: cell-based; settings: 0.1% EGCG in media, vs control without EGCG
Description: (§1) FIG. 1. Effect of EGCG on growth of probiotic and pathogenic bacterial species. The growth was monitored by inoculating a 5% inoculum of respective bacterial species into media containing 0.1% of EGCG. Growth was compared to that of control (without EGCG) to determine the influence of EGCG by spectrophotometric method (600 nm). Lactobacillus rhamnosus (LR); Lactobacillus fermentum (LF); Lactobacillus planatarum (LP); Escherichia coli (EC; MTCC 43); Salmonella typhi (ST; MTCC 733); Pseudomonas aeruginosa (PS; MTCC 424); Staphylococcus aureus (SA; MTCC 96); Klebsiella pneumoniae (K; MTCC 109); Shigella flexneri (SF; MTCC 1457); Vibrio cholera (VC; MTCC 3904).
(§2) To test prebiotic efficacy, the effect of EGCG on growth of probiotic bacteria (Lactobacillus species) and pathogenic bacteria [Escherichia coli (EC); Salmonella typhi (ST); Pseudomonas (PS); Staphylococcus aureus (SA); Klebsiella (K); Shigella flexneri (SF); Vibrio cholera (VC)] was assessed. The probiotic bacteria were isolated, identified and characterized while the pathogenic bacteria were procured from MTCC, Chandigarh.

splenocytes = assay: Flow cytometric analysis of splenocyte T cell sub-populations and activation status in aging animals; type: in vivo, swiss albino mice; settings: 16 months old mice, oral supplementation 30 days
Description: The probiotic Lactobacillus, EGCG or a combination of the two were orally administered to aged animals for 31 days before sacrificing and subsequent analysis of various immune and oxidative stress associated parameters.
Effect of synbiotics supplementation on T cells sub-population of aging animals. Animals were fed with respective diets for 31 days following which splenocytes were analyzed by flow cytometry. (A) %CD3+ cells (B) %NK cells and (C) %NKT cells. Bars with different letter indicate significant difference at p<0.05.
Effect of synbiotics supplementation on activation status of T cells sub-population of aging animals. Animals were fed with respective diets for 31 days following which splenocytes were analyzed by flow cytometry. (A) Activated T cells (B) Activated NK cells and (C) Activated NKT cells. Bars with different letter indicate significant difference at p<0.05.
The synbiotic composition of EGCG and probiotic Lactobacillus sp was assessed for effects on cellular immune response using aging murine model. Animals (16 months old) were randomized into four groups of six mice each: 1 control group and 3 experimental groups comprising of either only EGCG (PRE), probiotic Lactobacillus sp (PRO) or a combination of both (SYN). All animals were fed on commercially available pelleted mice chow (Golden feeds, New Delhi, India) and water ad libitum. The experimental animal groups were each supplemented with EGCG (@100 mg/kg/animal/day), probiotic Lactobacilli sp (10^8 cfu/ml) or a combination of both above (synbiotic) respectively for 30 consecutive days. At the end of the feeding regimen, the animals were sacrificed for various immunological and antioxidative analysis.

[1] = tested on: probiotic bacteria (Lactobacillus species); assay: Effect of EGCG on growth of probiotic bacteria (OD 600 nm); type: cell-based; settings: 0.1% EGCG in media, vs control without EGCG
Description: as §1, §2

## O=C(O[C@@H]1Cc2c(O)cc(O)cc2O[C@@H]1c1cc(O)c(O)c(O)c1)c1cc(O)c(O)c(O)c1 [EGCG, Epigallocatechin gallate]
Pathogenic bacteria; 5% inoculum, average over all pathogens
  average growth inhibition of pathogens: 52.05%
Pathogenic bacteria; maximum among pathogens
  growth inhibition of pathogens, Max: 89.88%
Pathogenic bacteria; minimum among pathogens
  growth inhibition of pathogens, Min: 32.7%
splenocytes
  natural killer T cells (NKT) subpopulation: no significant difference
splenocytes; vs control group
  activation of NK cells: decrease
  activation status of NKT cells: no changes
  numbers of natural killer cells (NK): appeared to decrease
[1]; 5% inoculum, average over probiotic species
  average decrease in growth of probiotics: 14.05%
[1]; maximum among probiotic species
  decrease in growth of probiotics, Max: 31%
[1]; minimum among probiotic species
  decrease in growth of probiotics, Min: 1.4%
